The values that follow come from patent US5672582A, “Thrombin inhibitors” (Merck & Co., Inc., priority 1994, dated 1997).

Read-outs that look alike come from different tables or passages of the source. A value given as a limit tells only on which side of the number the result lay.

By Ki is commonly meant a dissociation constant, usually derived from enzyme kinetics or from competition with a known ligand.

For one test, the target named is human α-thrombin (Homo sapiens, UniProt P00734). As to the kind of experiment: Proteinase inhibition assay, human α-thrombin. It counts as biochemical. As to conditions: for Ratio: Ki trypsin / Ki thrombin. The method, then: (§1) Assays of human α-thrombin and bovine trypsin were performed at 25° C. in 0.05M TRIS buffer pH 7.4, 0.15M NaCl, 0.1% PEG. Trypsin assays also contained 1 mM CaCl2.
"Sar" is the three letter abbreviation for the amino acid sarcosine (N-methylglycine). p-Nitroanilide substrate concentration was determined from measurements of absorbance at 342 nm using an extinction coefficient of 8270 cm^-1 M^-1.
Concentrations of stock solutions of Z-GPR-afc were determined from measurements of absorbance at 380 nm (extinction coefficient=12600 cm^-1 M^-1) of the 7-amino-4-trifluoromethyl coumarin produced upon complete hydrolysis of an aliquot of the stock solution by thrombin.
(§2) Times required to achieve equilibration between enzyme and inhibitor were determined in control experiments. Initial velocities of product formation in the absence (Vo) or presence of inhibitor (Vi) were measured. Assuming competitive inhibition, and that unity is negligible compared Km /[S], [S]/e, and [I]/e (where [S], [I], and e respectively represent the total concentrations, of substrate, inhibitor and enzyme), the equilibrium constant (Ki) for dissociation of the inhibitor from the enzyme can be obtained from the dependence of Vo /Vi on [I] shown in equation 1.
The constants were determined at pH 7.4 in buffer containing 0.05M Tris, 0.15M NaCl, 0.1% PEG-8000 at room temperature.

For a further test, the target named is T1, bovine trypsin (Bos taurus, UniProt P00760).
T1 sequence (P00760 24-246): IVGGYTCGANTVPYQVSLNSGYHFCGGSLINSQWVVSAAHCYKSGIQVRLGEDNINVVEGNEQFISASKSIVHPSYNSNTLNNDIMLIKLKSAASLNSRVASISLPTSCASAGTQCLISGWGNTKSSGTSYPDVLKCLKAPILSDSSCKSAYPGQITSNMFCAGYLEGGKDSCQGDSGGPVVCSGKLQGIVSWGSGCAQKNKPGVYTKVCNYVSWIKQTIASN
Description: Proteinase inhibition assay, bovine trypsin. It counts as biochemical. The method, then: as §1
In assays wherein rates of hydrolysis of a p-nitroanilide (pna) substrate were determined, a Thermomax 96-well plate reader was used was used to measure (at 405 nm) the time dependent appearance of p-nitroaniline. sar-PR-pna was used to assay human α-thrombin (Km =125 μM) and bovine trypsin (Km =125 μM). "Sar" is the three letter abbreviation for the amino acid sarcosine (N-methylglycine). p-Nitroanilide substrate concentration was determined from measurements of absorbance at 342 nm using an extinction coefficient of 8270 cm^-1 M^-1.
as §2
Using the assays described above, the following additional embodiments of the invention were evaluated and shown to be selective for inhibiting thrombin. The constants were determined at pH 7.4 in buffer containing 0.05M Tris, 0.15M NaCl, 0.1% PEG-8000 at room temperature.

A further test deals with T2, Factor Xa (fXa) (Homo sapiens, UniProt P00742).
T2 construct: Factor Xa (fXa), plasma kallikrein (p-Kal), plasmin (Pl)
T2 sequence (P00742 235-488 limits assumed): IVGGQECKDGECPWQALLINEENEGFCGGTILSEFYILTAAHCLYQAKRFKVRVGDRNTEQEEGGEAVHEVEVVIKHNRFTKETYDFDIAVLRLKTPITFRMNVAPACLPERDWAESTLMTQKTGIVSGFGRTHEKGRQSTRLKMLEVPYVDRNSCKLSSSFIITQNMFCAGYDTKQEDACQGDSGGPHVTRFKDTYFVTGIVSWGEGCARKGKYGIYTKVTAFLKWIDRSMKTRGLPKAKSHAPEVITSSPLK
T2 sequence (P00742 41-179 limits assumed): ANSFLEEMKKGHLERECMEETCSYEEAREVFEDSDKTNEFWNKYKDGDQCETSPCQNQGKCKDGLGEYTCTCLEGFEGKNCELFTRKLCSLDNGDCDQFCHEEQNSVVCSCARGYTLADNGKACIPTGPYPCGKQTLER
Description: Chromogenic assay, Factor Xa. Type of test: biochemical. To be noted: Table 3.

Test [1] deals with T3, plasma kallikrein (p-Kal) (Homo sapiens, UniProt P03952).
T3 construct: plasma kallikrein (p-Kal)
T3 sequence (P03952 391-638 limits assumed, species assumed): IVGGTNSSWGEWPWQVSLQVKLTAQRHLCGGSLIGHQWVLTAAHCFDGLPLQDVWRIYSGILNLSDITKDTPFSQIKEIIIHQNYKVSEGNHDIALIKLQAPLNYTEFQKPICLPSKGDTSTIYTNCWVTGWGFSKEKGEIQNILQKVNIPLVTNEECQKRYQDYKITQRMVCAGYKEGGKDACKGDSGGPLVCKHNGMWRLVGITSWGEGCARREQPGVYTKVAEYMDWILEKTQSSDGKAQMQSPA
T3 sequence (P03952 20-390 limits assumed, species assumed): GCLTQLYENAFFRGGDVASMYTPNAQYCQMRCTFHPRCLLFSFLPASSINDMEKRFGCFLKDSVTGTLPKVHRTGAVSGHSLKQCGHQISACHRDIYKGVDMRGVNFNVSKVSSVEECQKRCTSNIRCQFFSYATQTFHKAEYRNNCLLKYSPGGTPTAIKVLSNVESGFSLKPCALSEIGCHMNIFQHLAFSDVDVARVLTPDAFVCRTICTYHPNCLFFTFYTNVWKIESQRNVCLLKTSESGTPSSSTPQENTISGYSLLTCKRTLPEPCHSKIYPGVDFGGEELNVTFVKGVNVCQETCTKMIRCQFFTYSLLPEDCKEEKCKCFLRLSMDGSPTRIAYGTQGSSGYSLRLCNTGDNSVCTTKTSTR
As to the kind of experiment: Chromogenic assay, plasma kallikrein. Type of test: biochemical. As to conditions: Table 3.

The target in another test is plasmin (Pl) (Homo sapiens, UniProt P00747). As to the kind of experiment: Chromogenic assay, plasmin. It counts as biochemical. To be noted: Table 3.
plasmin (Pl), sequence (P00747 581-810 limits assumed, species assumed): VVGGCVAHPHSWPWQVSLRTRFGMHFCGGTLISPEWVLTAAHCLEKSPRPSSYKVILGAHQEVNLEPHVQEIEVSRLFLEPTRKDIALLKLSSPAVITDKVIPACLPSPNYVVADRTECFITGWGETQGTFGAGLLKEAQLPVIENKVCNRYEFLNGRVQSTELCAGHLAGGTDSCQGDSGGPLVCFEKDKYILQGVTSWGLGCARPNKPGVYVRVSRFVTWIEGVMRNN
plasmin (Pl), sequence (P00747 97-580 limits assumed, species assumed): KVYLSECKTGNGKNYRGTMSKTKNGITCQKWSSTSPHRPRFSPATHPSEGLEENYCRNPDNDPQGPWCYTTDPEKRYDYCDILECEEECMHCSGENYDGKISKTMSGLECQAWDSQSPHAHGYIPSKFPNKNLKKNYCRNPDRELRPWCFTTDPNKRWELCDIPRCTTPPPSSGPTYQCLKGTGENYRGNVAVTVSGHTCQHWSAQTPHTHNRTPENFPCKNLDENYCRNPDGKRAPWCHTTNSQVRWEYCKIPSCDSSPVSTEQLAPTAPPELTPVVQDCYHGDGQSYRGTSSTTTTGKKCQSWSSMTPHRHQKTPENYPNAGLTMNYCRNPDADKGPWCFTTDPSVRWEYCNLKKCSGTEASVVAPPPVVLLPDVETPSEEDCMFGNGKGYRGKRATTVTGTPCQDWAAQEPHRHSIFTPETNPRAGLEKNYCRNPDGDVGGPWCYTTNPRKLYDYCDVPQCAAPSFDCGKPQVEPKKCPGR
The target of test [2] is tissue plasminogen activator (t-PA) (Homo sapiens, UniProt P00750). Description: Chromogenic assay, tissue plasminogen activator. Type of test: biochemical. To be noted: Table 3, read-out: Ki (nM) tPA.
tissue plasminogen activator (t-PA), sequence (P00750 36-562, species assumed): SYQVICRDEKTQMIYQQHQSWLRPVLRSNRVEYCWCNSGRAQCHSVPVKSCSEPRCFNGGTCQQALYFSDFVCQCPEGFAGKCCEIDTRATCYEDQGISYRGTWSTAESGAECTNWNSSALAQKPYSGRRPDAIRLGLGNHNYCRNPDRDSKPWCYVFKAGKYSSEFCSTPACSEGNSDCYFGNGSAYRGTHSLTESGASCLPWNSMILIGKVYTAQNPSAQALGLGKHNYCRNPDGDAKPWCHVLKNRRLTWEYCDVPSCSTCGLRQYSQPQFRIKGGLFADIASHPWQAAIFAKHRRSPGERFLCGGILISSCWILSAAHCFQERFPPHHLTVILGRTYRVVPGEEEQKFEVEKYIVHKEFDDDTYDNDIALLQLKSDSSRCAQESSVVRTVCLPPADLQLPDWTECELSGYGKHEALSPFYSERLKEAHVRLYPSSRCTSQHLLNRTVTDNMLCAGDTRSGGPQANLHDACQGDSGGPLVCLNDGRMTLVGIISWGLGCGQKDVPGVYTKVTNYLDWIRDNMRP
Test [3] addresses activated protein C (APC) (Homo sapiens, UniProt P04070). Description: Chromogenic assay, activated protein C. Type of test: biochemical. As to conditions: Table 3.
The subject of test [4] is FeCl3 induced arterial thrombosis in rats. Description: Rat ferric chloride assay. It counts as in vivo. The method, then: In the assay, male Sprague-Dawley rats (body weights 200-350 grams) were anesthetized with dial-urethane solution (0.1 ml/100 gm body weight i.p.), and a lateral tail vein was cannulated with a 23 gauge needle connected to a 12 inch length of PE50 robing. The robing was attached to a 3-way valve by a tubing adapter. Saline (control) or test compound, as appropriate, was administered via the tail vein catheter. A tracheostomy was performed with a 0.75 inch length of PE205 tubing. The right carotid artery was exposed and a 1.3 mm diameter Doppler flow probe was placed on the vessel. Body temperature was maintained at 37° C. using a heat lamp.
Rats (8-10/group) were randomized to continuous intravenous infusions of saline or test compound administered via the tail vein at a rate of 0.028 ml/min. Treatment infusions were initiated 60 min before the placement of a 3 mm square piece of Whatman No. 1 filter paper saturated with 35% FeCl3 onto the exposed carotid artery distal to the flow probe. […] Time to occlusion was defined as the time from application of FeCl3 to thrombotic occlusion of the vessel.

[5] abbreviates: Table 2, pH 7.4, 0.05M Tris, 0.15M NaCl, 0.1% PEG-8000, room temperature, read-out: Ki (nM) Thrombin.
[6] abbreviates: Table 2, pH 7.4, 0.05M Tris, 0.15M NaCl, 0.1% PEG-8000, room temperature, read-out: Ki (nM) Trypsin.
The mark [7] stands for this setting: Table 1, 25° C., 0.05M TRIS pH 7.4, 0.15M NaCl, 0.1% PEG, read-out: Ki (μM) Thrombin.
The mark [8] stands for this setting: Table 1, 25° C., 0.05M TRIS pH 7.4, 0.15M NaCl, 0.1% PEG, 1 mM CaCl2, read-out: Ki (μM) Trypsin.

activated protein C (APC), sequence (P04070 212-461 limits assumed): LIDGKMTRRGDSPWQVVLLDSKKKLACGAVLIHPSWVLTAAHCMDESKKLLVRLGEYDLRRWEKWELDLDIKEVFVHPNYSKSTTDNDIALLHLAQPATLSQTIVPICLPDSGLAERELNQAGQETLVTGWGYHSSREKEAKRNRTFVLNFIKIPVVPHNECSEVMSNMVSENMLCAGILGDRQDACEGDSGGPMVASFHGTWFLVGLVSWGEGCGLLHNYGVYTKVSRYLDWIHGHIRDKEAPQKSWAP
activated protein C (APC), sequence (P04070 43-197 limits assumed): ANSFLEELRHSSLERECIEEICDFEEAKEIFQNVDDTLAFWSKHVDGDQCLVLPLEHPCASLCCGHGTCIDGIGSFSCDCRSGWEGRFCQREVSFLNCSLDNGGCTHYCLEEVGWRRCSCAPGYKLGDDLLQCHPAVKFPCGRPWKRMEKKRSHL

Regarding `CNC(=O)C(=O)C(NC(=O)C1CCCN1C(=O)CCc1ccccc1)C1CCC(N)CC1` (mixture of isomers) [ix], the Ki at human α-thrombin (setting [5]) was 4 nM; at bovine trypsin (setting [6]), greater than 10000 nM; on Factor Xa (fXa) it was greater than 10000 nM; in test [1], greater than 10000 nM; at plasmin (Pl) it was greater than 10000 nM; in test [2] it was greater than 10000 nM. Further, in test [3], the Ki was greater than 10000 nM.
In the case of `CNC(=O)C(=O)C(NC(=O)C1CCCN1C(=O)CC(c1ccccc1)c1ccccc1)C1CCC(N)CC1` (mixture of isomers) [xv], the Ki on human α-thrombin (setting [5]) was 0.03 nM; on bovine trypsin (setting [6]), 2000 nM; on Factor Xa (fXa) it was greater than 10000 nM; in test [1], greater than 10000 nM; at plasmin (Pl) it was greater than 10000 nM; in test [2], greater than 10000 nM. In addition, the inhibitory constant (Ki) in test [3] is greater than 10000 nM.
In the case of `CNC(Cc1ccccc1)C(=O)N1CCCC1C(=O)NC(C(=O)C(=O)NCc1ccccc1)C1CCC(N)CC1` (mixture of isomers) [xvi], the inhibition constant Ki at human α-thrombin (setting [5]) was 0.6 nM; on bovine trypsin (setting [6]), 120 nM; at Factor Xa (fXa) it was greater than 10000 nM; in test [1], greater than 10000 nM; at plasmin (Pl) it was greater than 10000 nM; in test [2], greater than 10000 nM. In test [3], this compound had a Ki greater than 10000 nM.
On to `CNC(Cc1ccccc1)C(=O)N1CCCC1C(=O)NC(C(=O)C(=O)NC1CC1)C1CCC(N)CC1` (mixture of isomers) [xvii], for which the Ki is 0.07 nM at human α-thrombin (setting [5]); 120 nM at bovine trypsin (setting [6]); greater than 10000 nM at Factor Xa (fXa); 9000 nM in test [1]; greater than 10000 nM on plasmin (Pl); greater than 10000 nM in test [2]. The same compound had a Ki in test [3] greater than 10000 nM.
In the case of `CNC(Cc1ccccc1)C(=O)N1CCCC1C(=O)NC(C(=O)C(=O)N1CCC1)C1CCC(N)CC1` (mixture of isomers) [xviii], the Ki at human α-thrombin (setting [5]) is 0.04 nM; on bovine trypsin (setting [6]), 760 nM; at Factor Xa (fXa), greater than 10000 nM; in test [1] it was greater than 10000 nM; at plasmin (Pl), greater than 10000 nM; in test [2] it was greater than 10000 nM. In addition, the Ki in test [3] is greater than 10000 nM.
Turning to `CNC(Cc1ccccc1)C(=O)N1CCCC1C(=O)NC(C(=O)C(=O)O)C1CCC(N)CC1` (racemic) [3-3, H-NMe-D-Phe-Pro-t-DL-AcgY[COCO]--OH], the Ki on human α-thrombin (setting [7]) was 0.05 nM; at bovine trypsin (setting [8]), 51 nM; at Factor Xa (fXa), greater than 10000 nM; in test [1], 7000 nM; at plasmin (Pl) it was greater than 10000 nM; in test [2], greater than 10000 nM. In addition, the inhibition constant (Ki) in test [3] is greater than 10000 nM. Further, the Ratio on human α-thrombin (Table 1) is reported as 1000. Besides, the Incidence of occlusion in test [4] (10 μg/kg/min i.v. infusion) is listed as 3/4; in test [4] (20 μg/kg/min i.v. infusion) it was 0/4; in test [4] (50 μg/kg/min i.v. infusion), 0/4. The “Minutes to occulsion of those occluding” value in test [4] (10 μg/kg/min i.v. infusion) was 22 to 24 min.
With `CNC(=O)C(=O)C(NC(=O)C1CCCN1C(=O)C(Cc1ccccc1)NC)C1CCC(N)CC1` [4-3, H-NMe-D-Phe-Pro-t-D-Acg.PSI.[COCO]--NHMe], the Ki at bovine trypsin (Table 1, 25° C., 0.05M TRIS pH 7.4, 0.15M NaCl, 0.1% PEG, 1 mM CaCl2, listed as drawing 21, read-out: Ki (μM) Trypsin) was determined as 7000 nM.
For the compound `CNC(=O)C(=O)C(CC1CCC(N)CC1)NC(=O)C1CCCN1C(=O)C(Cc1ccccc1)NC` (centres unmarked) [vi], the inhibition constant (Ki) on human α-thrombin (setting [7]) amounted to 52 nM; at bovine trypsin (setting [8]) it was 1440 nM. The Ratio on human α-thrombin (Table 1) was 28.
On to `CNC(=O)C(=O)C(NC(=O)C1CCCN1C(=O)C(CC1CCCCC1)NC)C1CCC(N)CC1` (centres unmarked) [x], for which the Ki at human α-thrombin (setting [5]) is 0.07 nM; on bovine trypsin (setting [6]) it was 310 nM; on Factor Xa (fXa), 3000 nM; in test [1], greater than 10000 nM; at plasmin (Pl), 6000 nM; in test [2] it was greater than 10000 nM. In test [3], the Ki was greater than 10000 nM.
As for `CNC(=O)C(=O)C(NC(=O)C1CCCN1C(=O)CCc1ccc(Cl)c(Cl)c1)C1CCC(N)CC1` (centres unmarked) [xi], the Ki at human α-thrombin (setting [5]) was 0.4 nM; at bovine trypsin (setting [6]), greater than 10000 nM; on Factor Xa (fXa) it was greater than 10000 nM; in test [1], greater than 10000 nM; at plasmin (Pl) it was greater than 10000 nM; in test [2] it was greater than 10000 nM. The Ki in test [3] was greater than 10000 nM.
With `CNC(=O)C(=O)C(NC(=O)C1CCCN1C(=O)C(Cc1ccc(Cl)c(Cl)c1)NC)C1CCC(N)CC1` (centres unmarked) [xii], the Ki on human α-thrombin (setting [5]) is 0.025 nM; on bovine trypsin (setting [6]), 660 nM; at Factor Xa (fXa), 2300 nM; in test [1] it was greater than 10000 nM; at plasmin (Pl), greater than 10000 nM; in test [2], greater than 10000 nM. Besides, the Ki in test [3] is greater than 10000 nM.
As for `CNC(=O)C(=O)C(NC(=O)C1CCCN1C(=O)CCC1CCCCC1)C1CCC(N)CC1` (centres unmarked) [xiii], the Ki on human α-thrombin (setting [5]) is 2.2 nM; on bovine trypsin (setting [6]) it was 4000 nM; at Factor Xa (fXa), greater than 10000 nM; in test [1] it was greater than 10000 nM; at plasmin (Pl), greater than 10000 nM; in test [2], greater than 10000 nM. The Ki in test [3] was greater than 10000 nM.
In the case of `CNC(=O)C(=O)C(NC(=O)C1CCCN1C(=O)C(Cc1ccc2ccccc2c1)NC)C1CCC(N)CC1` (centres unmarked) [xiv], the Ki at human α-thrombin (setting [5]) was 0.09 nM; at bovine trypsin (setting [6]), 2100 nM; at Factor Xa (fXa) it was 9000 nM; in test [1], greater than 10000 nM; on plasmin (Pl) it was greater than 10000 nM; in test [2] it was greater than 10000 nM. Besides, in test [3], the Ki is greater than 10000 nM.
